# Experimental data reported in the PolyMetriX glass transition set.
row,Structure (SMILES),glass transition temperature [°C]
1,*C(=O)c1ccc2c(c1)C(=O)N(c1cccc(C(=O)Nc3ccc(N4C(=O)c5ccc(*)cc5C4=O)cc3)c1)C2=O (repeat unit),308.00
2,*O[Si](*)(C)CCCCCOc1ccc(/C=C/c2ccc(OC)cc2)cc1 (repeat unit),52.00
3,*c1ccc(-c2ccc(-n3c(-c4ccc(Oc5ccc(C(=O)c6cccc(C(=O)c7ccc(Oc8ccc(-c9nc%10ccccc%10n9*)cc8)cc7)c6)cc5)cc4)nc4ccccc43)cc2)cc1 (repeat unit),244.00
4,*CC(*)(C)C(=O)OCCCCCCCCCCOc1ccc(/N=N/c2ccc(C3OCC4(CO3)CC3C=CC4C3)cc2)cc1 (repeat unit),103.20
5,*c1ccc(C(c2ccc(N3C(=O)c4ccc(Oc5cccc6c(Oc7ccc8c(c7)C(=O)N(*)C8=O)cccc56)cc4C3=O)cc2)(C(F)(F)F)C(F)(F)F)cc1 (repeat unit),276.00
6,*c1ccc(Oc2cccc(N3C(=O)c4ccc([Si](C)(C)O[Si](C)(C)c5ccc6c(c5)C(=O)N(c5cccc(Oc7ccc(-c8nnc(*)o8)cc7)c5)C6=O)cc4C3=O)c2)cc1 (repeat unit),165.00
7,*C(=O)c1ccc2c(c1)C(=O)N(c1ccc(-c3c(-c4ccc(-c5ccccc5)cc4)cc(-c4ccc(OCCCCCCOc5ccc(-c6cc(-c7ccc(-c8ccccc8)cc7)c(-c7ccc(N8C(=O)c9ccc(*)cc9C8=O)cc7)c(-c7ccc(-c8ccccc8)cc7)c6)cc5)cc4)cc3-c3ccc(-c4ccccc4)cc3)cc1)C2=O (repeat unit),111.50
8,*Oc1ccc(S(=O)(=O)c2ccc(Oc3ccc(P(C)(=O)c4ccc(*)cc4)cc3)cc2)cc1 (repeat unit),233.00
9,*C(=O)c1ccc2c(c1)C(=O)N(c1cccc(C(=O)c3ccccc3N3C(=O)c4ccc(*)cc4C3=O)c1)C2=O (repeat unit),259.00
10,*Oc1ccc(C2(c3ccc(OC(=O)CCC(*)=O)cc3)c3cc(OC)ccc3-c3ccc([N+](=O)[O-])cc32)cc1 (repeat unit),230.00
11,*Oc1ccc(C(C)(C)c2ccc(Oc3ccc(C(=O)c4ccc(P(=O)(c5ccccc5)c5ccc(C(=O)c6ccc(*)cc6)cc5)cc4)cc3)cc2)cc1 (repeat unit),195.00
12,*c1ccc(Oc2ccc(C(c3ccc(Oc4ccc(-c5nnc(*)c6c(-c7ccccc7)c(-c7ccc8ccccc8c7)c(-c7ccc8ccccc8c7)c(-c7ccccc7)c56)cc4)cc3)(C(F)(F)F)C(F)(F)F)cc2)cc1 (repeat unit),291.00
13,*CC1CCC(COC(=O)c2cccc(C(=O)O*)c2)CC1 (repeat unit),70.00
14,*c1cccc(C(=O)Nc2ccc(Oc3cccc(Oc4ccc(NC(=O)c5cccc(N6C(=O)c7ccc(-c8ccc9c(c8)C(=O)N(*)C9=O)cc7C6=O)c5)cc4)c3)cc2)c1 (repeat unit),253.00
15,*c1cccc(NC(=O)c2cccc(C(=O)Nc3cccc(-n4c(=O)c5cc6c(=O)n(*)c(=O)c6cc5c4=O)c3)c2)c1 (repeat unit),338.00
16,*CC(*)c1cc(OC)c(OC(C)=O)c(OC)c1 (repeat unit),147.00
17,*c1ccc(-c2ccc(-c3c(-c4ccccc4)nc4ccc(Oc5ccc6nc(-c7ccccc7)c(*)c(-c7ccccc7)c6c5)cc4c3-c3ccccc3)cc2)cc1 (repeat unit),330.00
18,*Oc1ccc(C(=O)Nc2ccc(Cc3ccc(NC(=O)c4ccc(Oc5ccc(C(=O)c6ccc(S(=O)(=O)c7ccc(C(=O)c8ccc(*)cc8)cc7)cc6)cc5)cc4)cc3)cc2)cc1 (repeat unit),240.00
19,*/C=C/c1cc(OCCC(C)CCCC(C)C)c(*)cc1OC (repeat unit),54.50
20,*C(=O)Nc1ccc(-c2sc(-c3ccc(NC(=O)c4ccc5c(c4)C(=O)N(c4ccc(-c6sc(-c7ccc(N8C(=O)c9ccc(*)cc9C8=O)cc7)c(-c7ccccc7)c6-c6ccccc6)cc4)C5=O)cc3)c(-c3ccccc3)c2-c2ccccc2)cc1 (repeat unit),338.00
21,*Oc1ccc(Oc2ccc(NC(=C(C#N)C#N)c3ccc(C(Nc4ccc(*)cc4)=C(C#N)C#N)cc3)cc2)cc1 (repeat unit),255.00
22,*CCCCCCCCCCCCCCCCCCNC(=O)NCc1ccc(CNC(=O)N*)cc1 (repeat unit),52.00
23,*c1ccc(Cc2ccc(N3C(=O)c4ccc([Si](C)(C)c5ccc6c(c5)C(=O)N(*)C6=O)cc4C3=O)cc2)cc1 (repeat unit),280.00
24,*c1ccc(C(=O)c2ccc(-n3nc(-c4ccc(Sc5ccc(-c6nn(*)c(=O)c7ccccc67)cc5)cc4)c4ccccc4c3=O)cc2)cc1 (repeat unit),281.00
25,*C(=O)OCCCCCCCCCCCCCCCCCCCCCCOC(=O)c1ccc(N2C(=O)c3ccc(*)cc3C2=O)cc1 (repeat unit),44.00
26,*O[Si](C)(C)COC(=O)CCCCCCCCC(=O)Oc1ccc(S(=O)(=O)c2ccc(Oc3ccc(/C=C4\CCCC/C(=C\c5ccc(Oc6ccc(S(=O)(=O)c7ccc(OC(=O)CCCCCCCCC(=O)OC[Si](*)(C)C)cc7)cc6)cc5)C4=O)cc3)cc2)cc1 (repeat unit),81.00
27,*c1ccc(OC(=O)c2ccc(C(=O)Oc3ccc(C4(*)OC(=O)c5ccccc54)cc3)cc2)cc1 (repeat unit),279.00
28,*CC(O)COC(=O)/C=C/C(=O)Oc1ccc(C(C)(C)c2ccc(O*)cc2)cc1 (repeat unit),32.00

row,Structure (SMILES),glass transition temperature [°C]
1,*O[Si](C)(C)COC(=O)CCCCCCCCC(=O)Oc1ccc(S(=O)(=O)c2ccc(Oc3ccc(/C=C4\CC/C(=C\c5ccc(Oc6ccc(S(=O)(=O)c7ccc(OC(=O)CCCCCCCCC(=O)OC[Si](*)(C)C)cc7)cc6)cc5)C4=O)cc3)cc2)cc1 (repeat unit),73.00
2,*C(=O)c1ccc2c(c1)C(=O)N(c1ccc(C(c3ccccc3)(c3ccc(N4C(=O)c5ccc(*)cc5C4=O)cc3)C(F)(F)F)cc1)C2=O (repeat unit),311.00
3,*Oc1cc(C(C)(C)C)c(Oc2ccc(C(=O)Nc3ccc(C(C)(C)c4ccc(NC(=O)c5ccc(*)cc5)c(C)c4)cc3C)cc2)cc1C(C)(C)C (repeat unit),275.00
4,*CC(*)C(=O)c1ccc(CC)cc1 (repeat unit),49.2
5,*Oc1ccc(NC(=O)c2cc(C(=O)Nc3ccc(*)cc3)cc(C(F)(F)C(F)(F)C(F)(F)C(F)(F)F)c2)cc1 (repeat unit),257.00
6,*CCCCCCNC(=O)CC(=O)N* (repeat unit),50.00
7,*c1cccc(Oc2cccc(Oc3cccc(N4C(=O)C5C6C=CC(C7C(=O)N(*)C(=O)C67)C5C4=O)c3)c2)c1 (repeat unit),177.00
8,*C(=O)Nc1ccc(Oc2ccccc2-c2ccccc2Oc2ccc(NC(=O)c3ccc4c(c3)C(=O)N(c3ccc(Cc5ccc(N6C(=O)c7ccc(*)cc7C6=O)cc5)cc3)C4=O)cc2)cc1 (repeat unit),240.00
9,*CCCCCCCCCCCCNC(=O)CCc1ccc(CCC(=O)N*)cc1 (repeat unit),85.00
10,*=Nc1ccc(Cc2ccc(NC(=*)CCCC)cc2)cc1 (repeat unit),106.00
11,*OC(COC(=O)C1=C(C(=O)OCC(COC(=O)C2=C(c3ccccc3)C3C=CC2C3)OC(=O)c2ccc(C(*)=O)cc2)C2C=CC1C2)COC(=O)C1=C(c2ccccc2)C2C=CC1C2 (repeat unit),74.00
12,*C1C(=O)N(C(C)(C)C)C(=O)C1* (repeat unit),195.00
13,*c1cccc(Oc2cccc(Oc3cccc(N4C(=O)c5ccc(Oc6ccc(Sc7ccc(Oc8ccc9c(c8)C(=O)N(*)C9=O)cc7)cc6)cc5C4=O)c3)c2)c1 (repeat unit),190.50
14,*C(=O)c1ccc2c(c1)C(=O)N(c1cc(C(=O)O)cc(N3C(=O)c4ccc(*)cc4C3=O)c1)C2=O (repeat unit),314.00
15,*c1cccc(C(=O)c2ccc(Oc3ccc(N4C(=O)c5ccc(Oc6ccc7c(c6)C(=O)N(*)C7=O)cc5C4=O)cc3)cc2)c1 (repeat unit),232.00
16,*Oc1ccc(C(c2ccc(OC(*)=S)cc2)C(C)C)cc1 (repeat unit),135.00
17,*CC(*)C(=O)OCC(F)(F)C(F)(F)OC(F)(F)C(F)(F)F (repeat unit),-49.00
18,*c1cccc(OCCCCCCCCCCCCOc2cccc(N3C(=O)c4ccc(-c5ccc6c(c5)C(=O)N(*)C6=O)cc4C3=O)c2)c1 (repeat unit),116.00
19,*CC(*)c1cc(C(=O)OCCCCCC)ccc1-c1ccc(OCCCCCCCC)cc1 (repeat unit),64.00
20,*Oc1ccc(C2(c3ccc(OC(=O)CCCC(*)=O)cc3)c3ccccc3-c3ccccc32)cc1 (repeat unit),207.00
21,*CCCCOCCCCOCCCCOC(=O)c1ccc(/N=C/c2cc(OCCCCCC)c(/C=C/c3cc(OCCCCCC)c(/C=C/c4cc(OCCCCCC)c(/C=N/c5ccc(C(=O)O*)cc5)cc4OCCCCCC)cc3OCCCCCC)cc2OCCCCCC)cc1 (repeat unit),14.30
22,*c1ccc(Oc2ccc(C3(c4ccc(Oc5ccc(-c6nnc(*)c7c(-c8ccccc8)c(-c8ccc9ccccc9c8)c(-c8ccc9ccccc9c8)c(-c8ccccc8)c67)cc5)cc4)c4ccccc4-c4ccccc43)cc2)cc1 (repeat unit),334.00
23,*CC(*)c1ccc(C(=O)CCCCCCC)cc1 (repeat unit),50.00
24,*C1C(=O)N(c2cc(Br)c(O[Si](c3ccccc3)(c3ccccc3)c3ccccc3)c(Br)c2)C(=O)C1* (repeat unit),179.00
25,*c1ccc(-c2ccc(N(c3ccccc3)c3ccc(-c4ccc(N(c5ccccc5)c5ccc(-c6ccc(-n7c(=O)c8cc9c(=O)n(*)c(=O)c9cc8c7=O)cc6)cc5)cc4)cc3)cc2)cc1 (repeat unit),220.00
26,*CCCNC(=O)c1ccc(C(=O)N*)cc1 (repeat unit),180.00
27,*Oc1cccc(Oc2ccc(/N=C/c3ccc(N(c4ccccc4)c4ccc(/C=N/c5ccc(*)cc5)cc4)cc3)cc2)c1 (repeat unit),174.00
